Data: US9080214B2, “Genetic markers for efficacy of iloperidone in the treatment of psychotic symptoms” (Vanda Pharmaceuticals, Inc., priority 2007, dated 2015)

System: individuals diagnosed with schizophrenia
Test: Change in PANSS-T by SNP genotype, patients on iloperidone 24 mg/day b.i.d. for 28 days (MMRM, LOCF)
Format: in vivo, human
Source text: Earlier studies investigated an association between a polymorphism in the CNTF gene and iloperidone efficacy as well as associations between CYP2D6 and KCNQ1 genotypes and changes in QT interval following the administration of iloperidone. The present study involved the genotyping of DNA samples collected from 426 individuals diagnosed with schizophrenia in an attempt to identify additional SNPs associated with iloperidone efficacy. Each sample was genotyped at more than 500,000 SNP loci using the GeneChip® Human Mapping 500K Array Set (Affymetrix, Santa Clara, Calif.) and using assays developed in-house. Approximately half of the participants in the study were administered 24 mg/day of iloperidone, b.i.d., for 28 days. About 25% of the patients were administered ziprasidone. The remaining participants were administered a placebo. Three analyses of the PANSS-T were conducted. 1) A two-step approach where samples were randomly split into 2 groups of iloperidone-treated patients used to discover SNPs associated with changed in PANSS-T (Discovery phase) and a second group to confirm the 100 most significant SNPs (Confirmatory phase). 2) A one-step approach using the Last Observation Carried Forward (LOCF) PANSS-T data of all iloperidone-treated patients. For each SNP, the most parsimonious genetic model (e.g., homozygous for one allele v. all other genotypes [i.e., AA v. AB and BB], heterozygous v. homozygous [i.e., AB v. AA and BB]) was established with respect to iloperidone efficacy using a one-way analysis of variance (ANOVA). 3) A Mixed-effects Model Repeated Measures (MMRM) analysis was subsequently conducted using the best genetic model of each SNP in the MMRM model. MMRM analyses were also conducted with the PANSS subscales PANSS-P, PANSS-N, and PANSS-GP. The SNPs with a statistically significant association in all 3 analyses of PANSS-T, as well as the best of each analysis were considered significant findings and are listed below in Table 1. Results for each of these SNPs with the PANSS-T scales and with the three subscales PANSS-P, PANSS-N, and PANSS-GP are shown in Tables 2, 3, 4, and 5, respectively. As used herein, “greater iloperidone efficacy” means an improvement in PANSS-T score of at least about 20%. In the current study, this means an improvement of at least 13 points.

## COc1cc(C(C)=O)ccc1OCCCN1CCC(c2noc3cc(F)ccc23)CC1 [iloperidone, 1-[4-[3-[4-(6-fluoro-1,2-benzisoxazol-3-yl)-1-piperidinyl]propoxy]-3-methoxyphenyl]ethanone]
SNP_A-1819750 (CREG1) genotype A_A
  mean of change in PANSS-T: −18.13
SNP_A-1819750 (CREG1) genotype A_B*
  mean of change in PANSS-T: −10.74
SNP_A-1819750 (CREG1) genotype B_B
  mean of change in PANSS-T: −16.05
SNP_A-1819750 (CREG1) genotype nonAB**
  mean of change in PANSS-T: −16.72
SNP_A-1860353 (RAP1B) genotype A_A**
  mean of change in PANSS-T: −37.40
SNP_A-1860353 (RAP1B) genotype A_B
  mean of change in PANSS-T: −11.79
SNP_A-1860353 (RAP1B) genotype B_B
  mean of change in PANSS-T: −11.84
SNP_A-1860353 (RAP1B) genotype nonAA*
  mean of change in PANSS-T: −11.83
SNP_A-1934663 genotype A_A
  mean of change in PANSS-T: −18.67
SNP_A-1934663 genotype A_B
  mean of change in PANSS-T: −18.34
SNP_A-1934663 genotype B_B*
  mean of change in PANSS-T: −8.39
SNP_A-1934663 genotype nonBB**
  mean of change in PANSS-T: −18.40
SNP_A-1973093 (KIAA0040) genotype A_A
  mean of change in PANSS-T: −14.99
SNP_A-1973093 (KIAA0040) genotype A_B*
  mean of change in PANSS-T: −6.21
SNP_A-1973093 (KIAA0040) genotype B_B
  mean of change in PANSS-T: −16.73
SNP_A-1973093 (KIAA0040) genotype nonAB**
  mean of change in PANSS-T: −16.39
SNP_A-1975928 (SLC2A9) genotype A_A
  mean of change in PANSS-T: −13.09
SNP_A-1975928 (SLC2A9) genotype A_B
  mean of change in PANSS-T: −13.17
SNP_A-1975928 (SLC2A9) genotype B_B*
  mean of change in PANSS-T: 16.38
SNP_A-1975928 (SLC2A9) genotype nonBB**
  mean of change in PANSS-T: −13.11
SNP_A-1987915 (GPR126) genotype A_A
  mean of change in PANSS-T: −9.87
SNP_A-1987915 (GPR126) genotype A_B
  mean of change in PANSS-T: −9.61
SNP_A-1987915 (GPR126) genotype B_B**
  mean of change in PANSS-T: −17.29
SNP_A-1987915 (GPR126) genotype nonBB*
  mean of change in PANSS-T: −9.67
SNP_A-2007721 (LOC58486) genotype A_A
  mean of change in PANSS-T: −4.55
SNP_A-2007721 (LOC58486) genotype A_B**
  mean of change in PANSS-T: −22.64
SNP_A-2007721 (LOC58486) genotype B_B
  mean of change in PANSS-T: −9.55
SNP_A-2007721 (LOC58486) genotype nonAB*
  mean of change in PANSS-T: −9.52
SNP_A-2044214 (HNT) genotype A_A
  mean of change in PANSS-T: −15.71
SNP_A-2044214 (HNT) genotype A_B*
  mean of change in PANSS-T: −7.43
SNP_A-2044214 (HNT) genotype B_B
  mean of change in PANSS-T: −14.43
SNP_A-2044214 (HNT) genotype nonAB**
  mean of change in PANSS-T: −15.26
SNP_A-2048427 (NPAS3) genotype A_A
  mean of change in PANSS-T: −19.94
SNP_A-2048427 (NPAS3) genotype A_B
  mean of change in PANSS-T: −20.15
SNP_A-2048427 (NPAS3) genotype B_B*
  mean of change in PANSS-T: −9.20
SNP_A-2048427 (NPAS3) genotype nonBB**
  mean of change in PANSS-T: −20.12
SNP_A-2070454 (NKX2-5) genotype A_A
  mean of change in PANSS-T: −9.88
SNP_A-2070454 (NKX2-5) genotype A_B
  mean of change in PANSS-T: −10.39
SNP_A-2070454 (NKX2-5) genotype B_B**
  mean of change in PANSS-T: −18.31
SNP_A-2070454 (NKX2-5) genotype nonBB*
  mean of change in PANSS-T: −10.23
SNP_A-2076797 (NUDT9P1) genotype A_A
  mean of change in PANSS-T: −7.14
SNP_A-2076797 (NUDT9P1) genotype A_B**
  mean of change in PANSS-T: −18.73
SNP_A-2076797 (NUDT9P1) genotype B_B
  mean of change in PANSS-T: −6.04
SNP_A-2076797 (NUDT9P1) genotype nonAB*
  mean of change in PANSS-T: −6.61
SNP_A-2103099 (HTR1A) genotype A_A
  mean of change in PANSS-T: −17.43
SNP_A-2103099 (HTR1A) genotype A_B*
  mean of change in PANSS-T: −8.31
SNP_A-2103099 (HTR1A) genotype B_B
  mean of change in PANSS-T: −16.12
SNP_A-2103099 (HTR1A) genotype nonAB**
  mean of change in PANSS-T: −16.60
SNP_A-2120958 genotype A_A
  mean of change in PANSS-T: −13.95
SNP_A-2120958 genotype A_B
  mean of change in PANSS-T: −13.71
SNP_A-2120958 genotype B_B*
  mean of change in PANSS-T: 2.48
SNP_A-2120958 genotype nonBB**
  mean of change in PANSS-T: −13.85
SNP_A-2170121 (C6) genotype A_A
  mean of change in PANSS-T: −8.94
SNP_A-2170121 (C6) genotype A_B**
  mean of change in PANSS-T: −21.93
SNP_A-2170121 (C6) genotype B_B
  mean of change in PANSS-T: −11.50
SNP_A-2170121 (C6) genotype nonAB*
  mean of change in PANSS-T: −9.17
SNP_A-2274533 (LZTS1) genotype A_A**
  mean of change in PANSS-T: −15.95
SNP_A-2274533 (LZTS1) genotype A_B
  mean of change in PANSS-T: −6.04
SNP_A-2274533 (LZTS1) genotype B_B
  mean of change in PANSS-T: −6.21
SNP_A-2274533 (LZTS1) genotype nonAA*
  mean of change in PANSS-T: −6.08
SNP_A-2283283 (XKR4) genotype A_A*
  mean of change in PANSS-T: −3.30
SNP_A-2283283 (XKR4) genotype A_B
  mean of change in PANSS-T: −14.57
SNP_A-2283283 (XKR4) genotype B_B
  mean of change in PANSS-T: −15.66
SNP_A-2283283 (XKR4) genotype nonAA**
  mean of change in PANSS-T: −15.02
SNP_A-2284243 (GRIA4) genotype A_A
  mean of change in PANSS-T: −15.30
SNP_A-2284243 (GRIA4) genotype A_B
  mean of change in PANSS-T: −15.17
SNP_A-2284243 (GRIA4) genotype B_B*
  mean of change in PANSS-T: −3.30
SNP_A-2284243 (GRIA4) genotype nonBB**
  mean of change in PANSS-T: −15.22
SNP_A-4204396 (CDH13) genotype A_A
  mean of change in PANSS-T: −13.72
SNP_A-4204396 (CDH13) genotype A_B
  mean of change in PANSS-T: −14.04
SNP_A-4204396 (CDH13) genotype B_B*
  mean of change in PANSS-T: 4.89
SNP_A-4204396 (CDH13) genotype nonBB**
  mean of change in PANSS-T: −13.84
SNP_A-4212785 (PPP1R3B) genotype A_A*
  mean of change in PANSS-T: 25.90
SNP_A-4212785 (PPP1R3B) genotype A_B
  mean of change in PANSS-T: −13.66
SNP_A-4212785 (PPP1R3B) genotype B_B
  mean of change in PANSS-T: −13.56
SNP_A-4212785 (PPP1R3B) genotype nonAA**
  mean of change in PANSS-T: −13.60
SNP_A-4230979 (ASB3) genotype A_A
  mean of change in PANSS-T: −6.70
SNP_A-4230979 (ASB3) genotype A_B
  mean of change in PANSS-T: −8.77
SNP_A-4230979 (ASB3) genotype B_B**
  mean of change in PANSS-T: −18.82
SNP_A-4230979 (ASB3) genotype nonBB*
  mean of change in PANSS-T: −8.34
SNP_A-4256833 (MLCK) genotype A_A
  mean of change in PANSS-T: −15.19
SNP_A-4256833 (MLCK) genotype A_B*
  mean of change in PANSS-T: −6.20
SNP_A-4256833 (MLCK) genotype B_B
  mean of change in PANSS-T: −15.15
SNP_A-4256833 (MLCK) genotype nonAB**
  mean of change in PANSS-T: −15.15
SNP_A-4258279 (RRM1) genotype A_A
  mean of change in PANSS-T: −13.42
SNP_A-4258279 (RRM1) genotype A_B*
  mean of change in PANSS-T: −2.55
SNP_A-4258279 (RRM1) genotype B_B
  mean of change in PANSS-T: −14.72
SNP_A-4258279 (RRM1) genotype nonAB**
  mean of change in PANSS-T: −14.70
